Where two headings read alike, the source gives them in different places. Marks after values point to notes of the source that are not given here.
Assays:
[1] = tested on: CC1/85 cl.7; experiment: Anti-HIV-1 assay, drug-naive clinical strain CC1/85 cl.7; assay type: cell-based
Description: (§1) MAGI-CCR5 cells[18] were maintained in DMEM supplemented with 10% fetal calf serum (FCS: Gemini Bio-Products, West Sacramento, CA), 200 μg/ml G418, 100 μg/ml hygromycin B, and 100 μg/ml zeomycin. The Chinese hamster ovary (CHO) cells expressing CCR5[19] were maintained in Ham’s F-12 medium (GIBCO-BRL, Rockville, MD) supplemented with 10% FCS, 50 U/ml penicillin, and 50 μg/ml streptomycin in the presence of 5 μg/ml blasticidin S hydrochloride. TZM-bl cells were obtained from the NIH AIDS Reagent Program, and were cultured in DMEM with 10% FCS. Peripheral blood mononuclear cells (PBMCs) were isolated from buffy coats of HIV-1 seronegative individuals, and were activated with 10 μg/ml phytohemagglutinin (PHA) prior to use[16]. A laboratory wild-type R5-HIV-1 strain (HIV-1Ba-L)[37] was employed for drug susceptibility assays. AD101 (experimental CCR5 inhibitor) and VVC-resistant HIV clones[7],[8] were provided by Dr. John P. Moore of Cornell University for this study. The clones were propagated with activated PBMCs, and were used for the assays. A clinical HIV-1 strain, HIV-1KP-5pc, and an MVC-resistant isolate, HIV-1KP-5mvcR, were prepared and used for antiviral assays, as previously described[10],[38]. The following reagents (plasmids) for T/F HIV-1 viruses[22],[24] were obtained through the NIH AIDS Reagent Program, Division of AIDS, NIAID, NIH: pCH040.c/2625 (cat# 11740), pCH106.c/2633 (cat# 11743), pTHRO.c/2626 (cat# 11745), and pCH058.c/2960 (cat# 11856), from Dr. John Kappes and Dr. Christina Ochsenbauer.
(§2) Antiviral assays using PHA-PBMCs (p24 assay) were conducted as previously reported[16],[38]. In brief, PHA-PBMCs (1 × 10^6/ml) were exposed to 50 TCID50 of HIV-1Ba-L or drug-resistant HIV-1 infectious clones in the presence or absence of various concentrations of drugs; 10-fold serial dilutions were performed in 96-well microculture plates. The amount of p24 antigens produced by the cells was determined on day 7 in the culture via a commercially available ELISA kit (PerkinElmer). The p24 production level in drug-free control cell cultures was used as the reference. […] Antiviral assays using MAGI-CCR5 cells (MAGI assay) were conducted as previously reported[16],[39]. Single-round virus infection assays using TZM-bl cells infected with R5-HIV-1s (HIV-1YU2, HIV-1KP-5pc, and HIV-1KP-5mvcR)[10] were also conducted as previously described.

[2] = biological target: T1, CCR5 (Homo sapiens, UniProt P51681); experiment: Inhibition of 125I-MIP-1β binding to CCR5 (CCR5+ CHO cells)
T1 construct: expressed in transfected cells; host or cells: Chinese hamster ovary (CHO) cells expressing CCR5
Description: (§3) In order to determine whether GRL derivatives block the binding of CC-chemokines to CCR5, we conducted a CC-chemokine binding inhibition assay using ^125I-labeled CC-chemokines (^125I-RANTES, ^125I-MIP-1α, and ^125I-MIP-1β) and CCR5 expressing cells.
(§4) CCR5^+ CHO cells were incubated with (A) ^125I-MIP-1α, (B) ^125I-MIP-1β, and (C) ^125I-RANTES (200 ng/ml) in the presence or absence of varying concentrations of CCR5 inhibitors. Data are shown as means ± s.d. of three independent experiments.
(§5) The inhibition of the binding of ^125I-labeled CC-chemokines ([^125I] RANTES, [^125I] MIP-1α, or [^125I] MIP-1β) to CCR5 by various CCR5 inhibitors was measured as previously described. Calcium flux inhibition assays were also performed with CCR5 inhibitors, and were carried out with the Fluo-4 Direct^TM calcium reagent (Invitrogen); assays were conducted as previously described with minor modifications. In brief, CHO-CCR5 cells (5 × 10^5 cells) were exposed to Fluo-4 Direct^TM calcium reagent for 60 min at 37 °C in RPMI containing 5% FCS. Cells were then incubated with the test compound for 30 min at varying concentrations. Subsequently, cells were exposed to either MIP-1α, MIP-1β, or RANTES at 200 ng/ml. Relative increases in cytosolic Ca^2+ levels after chemokine exposure were determined with flow cytometry (FACSCalibur, BD Biosciences), and IC50 values of cytosolic Ca^2+ mobilization (Ca^2+ flux) were compared with the Ca^2+ flux level in drug-free control samples.

[3] = biological target: T1, CCR5; experiment: Inhibition of 125I-RANTES binding to CCR5 (CCR5+ CHO cells)
Description: as §3, §4, §5

[4] = tested on: pCH0.6.c/2633; experiment: MAGI assay, T/F HIV-1 clone pCH0.6.c/2633; assay type: cell-based
Description: (§6) We also examined the activity of GRL-compounds against Transmitter/founder (T/F) HIV-1 viruses. T/F viruses are involved in the initial infection. It is considered that T/F viruses virtually always use CCR5 rather than CXCR4 and infect T cells but not macrophages because […] of CD4 is needed to mediate virus entry for the initial transmission[20]–[24]. […] We obtained four HIV-1 T/F infectious clones. We determined the antiviral activity of GRL-117C, GRL-10007C and GRL-10018C on these HIV-1 clones using MAGI assay.
as §1, with “A clinical HIV-1 strain, HIV-1KP-5pc, and an MVC-resistant isolate, HIV-1KP-5mvcR, were prepared and used for antiviral assays, as previously described[10],[38].” left out
as §2

[5] = tested on: pCH058.c/2960; experiment: MAGI assay, T/F HIV-1 clone pCH058.c/2960; assay type: cell-based
Description: as §6
as §1, with “A clinical HIV-1 strain, HIV-1KP-5pc, and an MVC-resistant isolate, HIV-1KP-5mvcR, were prepared and used for antiviral assays, as previously described[10],[38].” left out
as §2

[6] = tested on: R5-HIV-1BaL; experiment: p24 assay using PBMCs and R5-HIV-1BaL; assay type: cell-based; conditions: Ba-L (PBMCs), day 7
Description: as §1, §2

[7] = tested on: pTHRO.c/2626; experiment: MAGI assay, T/F HIV-1 clone pTHRO.c/2626; assay type: cell-based
Description: as §6
as §1, with “A clinical HIV-1 strain, HIV-1KP-5pc, and an MVC-resistant isolate, HIV-1KP-5mvcR, were prepared and used for antiviral assays, as previously described[10],[38].” left out
as §2

[8] = tested on: CC101.19 cl.7 (AD101 resistant); experiment: microbe, parasite or virus in culture; assay type: cell-based, HIV-1
Description: as §1, §2

[9] = tested on: D1/85.16 cl.23 (VVC resistant); experiment: microbe, parasite or virus in culture; assay type: cell-based, HIV-1
Description: as §1, §2

[10] = tested on: CC1/85 cl.6; experiment: Anti-HIV-1 assay, drug-naive clinical strain CC1/85 cl.6; assay type: cell-based
Description: as §1, §2

[11] = tested on: HIV-1KP-5mvcR; experiment: TZM-bl single-round infection assay, MVC-resistant HIV-1KP-5mvcR; assay type: cell-based
Description: as §1, §2

[12] = biological target: T1, CCR5; experiment: Inhibition of 125I-MIP-1α binding to CCR5 (CCR5+ CHO cells)
Description: as §3, §4, §5

[13] = tested on: R5-HIV-1Ba-L; experiment: MAGI assay using MAGI/CCR5 cells and R5-HIV-1Ba-L; assay type: cell-based; conditions: Ba-L (MAGI)
Description: as §1, §2

[14] = tested on: pCH040.c/2625; experiment: MAGI assay, T/F HIV-1 clone pCH040.c/2625; assay type: cell-based
Description: as §6
as §1, with “A clinical HIV-1 strain, HIV-1KP-5pc, and an MVC-resistant isolate, HIV-1KP-5mvcR, were prepared and used for antiviral assays, as previously described[10],[38].” left out
as §2

[15] = tested on: HIV-1KP-5pc; experiment: TZM-bl single-round infection assay, HIV-1KP-5pc; assay type: cell-based; conditions: KP-5pc, drug-sensitive clinical strain, TZM-bl assay, mean ± SD
Description: as §1, §2

[16] = tested on: Transmitter/founder (T/F) HIV-1 viruses; experiment: MAGI assay, all four T/F viruses (range); assay type: cell-based; conditions: four T/F HIV-1 clones, MAGI assay; read-out: IC50 values (range over four T/F viruses)
Description: as §6
MAGI-CCR5 cells[18] were maintained in DMEM supplemented with 10% fetal calf serum (FCS: Gemini Bio-Products, West Sacramento, CA), 200 μg/ml G418, 100 μg/ml hygromycin B, and 100 μg/ml zeomycin. The Chinese hamster ovary (CHO) cells expressing CCR5[19] were maintained in Ham’s F-12 medium (GIBCO-BRL, Rockville, MD) supplemented with 10% FCS, 50 U/ml penicillin, and 50 μg/ml streptomycin in the presence of 5 μg/ml blasticidin S hydrochloride. TZM-bl cells were obtained from the NIH AIDS Reagent Program, and were cultured in DMEM with 10% FCS. […]
Antiviral assays using PHA-PBMCs (p24 assay) were conducted as previously reported[16],[38]. […] The amount of p24 antigens produced by the cells was determined on day 7 in the culture via a commercially available ELISA kit (PerkinElmer). […]

[17] = tested on: HIV-1YU2; experiment: TZM-bl single-round infection assay, HIV-1YU2; assay type: cell-based; conditions: YU2, drug-sensitive, mean ± SD
Description: as §1, §2

[18] = Human immunodeficiency virus 1, MAGI
[19] = Human immunodeficiency virus 1, BAL, PBMC, 168 h
[20] = Human immunodeficiency virus 1, BAL

T1 sequence (P51681 whole entry): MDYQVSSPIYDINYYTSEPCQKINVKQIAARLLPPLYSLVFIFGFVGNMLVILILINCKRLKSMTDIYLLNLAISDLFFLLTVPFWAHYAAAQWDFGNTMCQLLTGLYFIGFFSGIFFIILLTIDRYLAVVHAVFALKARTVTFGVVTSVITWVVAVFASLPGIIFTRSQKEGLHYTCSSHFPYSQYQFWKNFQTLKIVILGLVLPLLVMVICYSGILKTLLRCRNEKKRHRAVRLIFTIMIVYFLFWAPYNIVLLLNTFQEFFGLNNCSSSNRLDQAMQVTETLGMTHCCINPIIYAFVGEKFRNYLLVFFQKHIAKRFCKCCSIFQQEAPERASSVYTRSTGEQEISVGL

Cc1cccc(C)c1C(=O)N1C2CCC1CC(N1CCN(C(C)c3ccc(C(F)(F)F)cc3)C(C)C1)C2 (centres unmarked) [GRL-10007C]
IC50 ([1]; Human immunodeficiency virus 1): 15.8 nM
IC90 ([1]; Human immunodeficiency virus 1): 80.3 nM
EC50 [2]: 2.5 nM
EC50 [3]: 628 nM
binding of 125I-RANTES remaining ([3]; in the presence of 1 μM compound): more than 40%
IC50 [4, 18]: 5.3 ± 3.4 nM
IC50 [5, 18]: 6.1 ± 3.2 nM
IC50 [6, 19]: 16.9 nM
IC90 [6, 19]: 126 nM
IC50 [7, 18]: 3.2 ± 0.4 nM
IC90 ([8]; Human immunodeficiency virus 1): 472 nM
IC50 ([8]; Human immunodeficiency virus 1, CC101.19 cl.7 (AD101 resistant)): 41.1 nM
IC90 ([9]; Human immunodeficiency virus 1): 536 nM
IC50 ([9]; Human immunodeficiency virus 1, D1/85.16 cl.23 (VVC resistant)): 56.9 nM
IC50 ([10]; Human immunodeficiency virus 1): 12.5 nM
activity against MVC-resistant HIV-1 (HIV-1KP-5mvcR) ([11]; in words, data not shown): failed to demonstrate activity
EC50 [12]: 1.1 nM
IC50 [13, 20]: 1.4 nM
IC90 [13, 20]: 9.5 nM
IC50 [14, 18]: 3.1 ± 0.3 nM

Maraviroc [MVC]
IC50 ([1]; CC1/85 cl.7, drug naive R5-HIV-1 clinical strain, read-out: IC50): 2.5 nM
IC90 ([1]; CC1/85 cl.7, drug naive R5-HIV-1 clinical strain, read-out: IC90): 20.6 nM
IC50 ([15]; read-out: IC50): 8.5 ± 3.6 nM
IC90 ([15]; read-out: IC90 (converted)): 81 nM
IC50 ([4]; T/F clone pCH0.6.c/2633, MAGI assay, mean ± SD, read-out: IC50): 2.3 ± 0.3 nM
IC50 ([5]; T/F clone pCH058.c/2960, MAGI assay, mean ± SD, read-out: IC50): 1.9 ± 0.1 nM
IC50 [6]: 4.5 nM
IC90 [6]: 21.6 nM
IC50 ([7]; T/F clone pTHRO.c/2626, MAGI assay, mean ± SD, read-out: IC50): 2.2 ± 0.8 nM
fold increases of IC50s compared to wild type (CC1/85 cl.7) ([8]; CC101.19 cl.7 (AD101 resistant) vs CC1/85 cl.7): (×15)^e fold
IC50 ([8]; CC101.19 cl.7 (AD101 resistant), read-out: IC50): 36.9 nM
IC90 ([8]; CC101.19 cl.7 (AD101 resistant), read-out: IC90): 486 nM
fold increases of IC50s compared to wild type (CC1/85 cl.7) ([9]; D1/85.16 cl.23 (VVC resistant) vs CC1/85 cl.7): (×11)^e fold
IC50 ([9]; D1/85.16 cl.23 (VVC resistant), read-out: IC50): 26.5 nM
IC90 ([9]; D1/85.16 cl.23 (VVC resistant), read-out: IC90): 376 nM
IC50 ([10]; CC1/85 cl.6, drug naive R5-HIV-1 clinical strain, read-out: IC50): 1.7 nM
IC50 ([11]; KP-5mvcR, MVC-resistant, TZM-bl assay, mean ± SD, read-out: IC50): 36 ± 28 nM
IC90 ([11]; KP-5mvcR, MVC-resistant, TZM-bl assay, mean ± SD, read-out: IC90 (converted)): 236 nM
IC50 [16]: 1.7 to 2.3 nM
IC50 [13]: 0.7 nM
IC90 [13]: 6.4 nM
IC50 [17]: 3.5 ± 2.5 nM
IC90 [17]: 15 nM
IC50 ([14]; T/F clone pCH040.c/2625, MAGI assay, mean ± SD, read-out: IC50): 1.7 ± 0.1 nM

From article PMC6423129, “Activity and structural analysis of GRL-117C: a novel small molecule CCR5 inhibitor active against R5-tropic HIV-1s” (Scientific Reports, 2019)
